The assay deals with IL-6 (THP-1 cells). Put plainly: IL-6 inhibition in LPS-stimulated THP-1 monocytes (HTRF). Particulars: Homo sapiens, IL-6 HTRF; for EC50: 500 ng/mL LPS, Table 6; for inhibition at 10 µM: LPS, Table 6, read-out: percent inhibition at 10 μM (given in parentheses for EC50 >10 μM). Format: cell-based. How it is done: Human Monocyte Cell Culture: Human monocyte cell line (THP-1 cells; Catalog # TIB-202, ATCC, Manassas, Va.) were cultured in Roswell Park Memorial Institute (RPMI) 1640 Medium (Catalog #21870-100, Buffalo, N.Y.) with 1% L-glutamine, 1% HEPES, 1% Sodium Pyruvate, 2% Sodium Bicarbonate supplemented with 100 units/mL penicillin, 50 μg/mL streptomycin, 2-mercaptoethanol (0.05 mM) [basal medium] and 10% fetal bovine serum (Catalog #16140089, Life Technologies, Carlsbad, Calif.) at 37° C. and 5% CO2.
Compound Screening: THP-1 cells were cultured in basal media with 1% FBS for 24 hours before the start of the assay. Each compound was dissolved in DMSO as a 10 mM stock and used to prepare compound source plates. Serial dilution (1:3, 10-point dose-response curves starting from 10 μM) and compound transfer was performed using the ECHO 550 (Labcyte, Sunnyvale, Calif.) into 384-well white low volume assay plates (Greiner Bio-One) with appropriate DMSO backfill for a final DMSO concentration of 0.1%. THP-1 cells were plated at 5000 cells/well in the 384-well plates and incubated at 37° C. for 2 h. 500 ng/mL of LPS was added after 2 hours and cells were incubated for another 22 hours at 37° C. Plates were spun in a centrifuge for 1 minute at […] and a mixture of anti-IL6 XL665, and anti-IL6 Cryptate diluted in reconstitution buffer (Cisbio Inc.) was added to each well. Following incubation for 3 hrs at room temperature, Homogeneous Time-Resolved Fluorescence (HTRF) was measured using the Envision (Perkin Elmer) at 665 nm and […]. The ratio of fluorescence at 665 nm to 620 nm was used as a readout for IL6 quantification. All samples were processed in duplicate. Readings were normalized to DMSO treated cells and normalized activities were utilized for EC50 calculations using the dose-response log (inhibitor) vs. response-variable slope (four parameters) nonlinear regression feature available in GraphPad Prism 5.0 (or Dotmatics). For EC50 of >10 μM, the percent inhibition at 10 μM is provided.
A general note: Time-resolved FRET reads energy transfer from a long-lived donor to a nearby acceptor.

What is called EC50 is the midpoint of the concentration-response curve. A word on the inhibition: it is how much of the control response was suppressed. For `CS(=O)(=O)NCc1cc(F)cc(-c2cccc3[nH]c(-c4n[nH]c5ccc(-c6cncc(NC(=O)CC7CCNCC7)c6)nc45)nc23)c1` [Compound 769, N-(5-(3-(4-(3-Fluoro-5-(methylsulfonamidomethyl)phenyl)-1H-benzo[d]imidazol-2-yl)-1H-pyrazolo[4,3-b]pyridin-5-yl)pyridin-3-yl)-2-(piperidin-4-yl)acetamide], the EC50 was > 10 µM and the inhibition at 10 µM stood at 25.4%.
As for `c1cc(-c2ccc3c(c2)OCO3)c2nc(-c3n[nH]c4ccc(C5CCNCC5)nc34)[nH]c2c1` [Compound 1108, 3-(4-(Benzo[d][1,3]dioxol-5-yl)-1H-benzo[d]imidazol-2-yl)-5-(piperidin-4-yl)-1H-pyrazolo[4,3-b]pyridine], the 50% effective concentration (EC50) is > 10 µM and the inhibition at 10 µM is 4.6%.
For the compound `Cc1ccc(-c2cccc3[nH]c(-c4n[nH]c5ccc(C6=CCNCC6)nc45)nc23)s1` [Compound 730, 3-(4-(5-Methylthiophen-2-yl)-1H-benzo[d]imidazol-2-yl)-5-(1,2,3,6-tetrahydropyridin-4-yl)-1H-pyrazolo[4,3-b]pyridine], a half-maximal response (EC50) required 9.16 µM. This lies in the single-digit micromolar range.
`COc1cccc(-c2cccc3[nH]c(-c4n[nH]c5ccc(-c6cn[nH]c6)nc45)nc23)c1` [Compound 1020, 3-(4-(3-Methoxyphenyl)-1H-benzo[d]imidazol-2-yl)-5-(1H-pyrazol-4-yl)-1H-pyrazolo[4,3-b]pyridine]: the EC50 was > 10 µM and the inhibition at 10 µM is 23.7%.
The matching figures for `Cc1ccc(-c2cccc3[nH]c(-c4n[nH]c5ccc(-c6cncc(OC7CCCCC7)c6)nc45)nc23)s1` [Compound 735, 5-(5-(Cyclohexyloxy)pyridin-3-yl)-3-(4-(5-methylthiophen-2-yl)-1H-benzo [d]imidazol-2-yl)-1H-pyrazolo[4,3-b]pyridine]: > 10 µM and 38.8%.
Take `O=C(CC1CCNCC1)Nc1cncc(-c2ccc3[nH]nc(-c4nc5c(-c6ccsc6)cccc5[nH]4)c3n2)c1` [Compound 673, 2-(Piperidin-4-yl)-N-(5-(3-(4-(thiophen-3-yl)-1H-benzo[d]imidazol-2-yl)-1H-pyrazolo[4,3-b]pyridin-5-yl)pyridin-3-yl)acetamide]: the EC50 was > 10 µM and the inhibition at 10 µM was 24.8%.
For the compound `Fc1ccccc1-c1cccc2[nH]c(-c3n[nH]c4ccc(-c5cncc(CNCC6CCCC6)c5)nc34)nc12` [Compound 81, 1-Cyclopentyl-N-((5-(3-(4-(2-fluorophenyl)-1H-benzo[d]imidazol-2-yl)-1H-pyrazolo[4,3-b]pyridin-5-yl)pyridin-3-yl)methyl)methanamine], the EC50 is 3.6 µM.
`Cc1ccc(-c2cccc3[nH]c(-c4n[nH]c5ccc(-c6cncc(NC(=O)C7CCCC7)c6)nc45)nc23)s1` [Compound 414, N-(5-(3-(4-(5-Methylthiophen-2-yl)-1H-benzo[d]imidazol-2-yl)-1H-pyrazolo [4,3-b]pyridin-5-yl)pyridin-3-yl)cyclopentanecarboxamide]: it took 0.0983 µM to reach a half-maximal effect (EC50).
Consider `O=C(Nc1cncc(-c2ccc3[nH]nc(-c4nc5c(-c6ccncc6)cccc5[nH]4)c3n2)c1)C1CCCCC1` [Compound 135, N-(5-(3-(4-(pyridin-4-yl)-1H-benzo[d]imidazol-2-yl)-1H-pyrazolo[4,3-b]pyridin-5-yl)pyridin-3-yl)cyclohexanecarboxamide], for which the concentration giving a half-maximal response (EC50) is > 10 µM and the inhibition at 10 µM was 32.4%.
Compound `CN(C)CCNc1cc(F)cc(-c2cccc3[nH]c(-c4n[nH]c5ccc(-c6cncc(OCc7ccccc7)c6)nc45)nc23)c1` [Compound 790, N^1-(3-(2-(5-(5-(Benzyloxy)pyridin-3-yl)-1H-pyrazolo[4,3-b]pyridin-3-yl)-1H-benzo[d]imidazol-4-yl)-5-fluorophenyl)-N^2,N^2-dimethylethane-1,2-diamine] yielded a half-maximal effective concentration (EC50) of 3.32 µM.
`c1cc(-c2ccoc2)c2nc(-c3n[nH]c4ccc(-c5cncc(OCCN6CCCC6)c5)nc34)[nH]c2c1` [Compound 690, 3-(4-(Furan-3-yl)-1H-benzo[d]imidazol-2-yl)-5-(5-(2-(pyrrolidin-1-yl)ethoxy)pyridin-3-yl)-1H-pyrazolo[4,3-b]pyridine] displayed an EC50 of 0.0939 µM.
On to `O=C(Nc1cncc(-c2ccc3[nH]nc(-c4nc5c(-c6ccccn6)cccc5[nH]4)c3n2)c1)c1ccccc1` [Compound 151, N-(5-(3-(4-(Pyridin-2-yl)-1H-benzo[d]imidazol-2-yl)-1H-pyrazolo[4,3-b]pyridin-5-yl)pyridin-3-yl)benzamide], for which the EC50 was > 10 µM and the inhibition at 10 µM amounted to 22%.
The like results for `COc1cncc(-c2ccc3[nH]nc(-c4nc5c(-c6ccoc6)cccc5[nH]4)c3n2)c1` [Compound 692, 3-(4-(Furan-3-yl)-1H-benzo[d]imidazol-2-yl)-5-(5-methoxypyridin-3-yl)-1H-pyrazolo[4,3-b]pyridine] were, in that order, > 10 µM and 53.2%.
Compound `CN1CCN(c2cccc3[nH]c(-c4n[nH]c5ccc(-c6cncnc6)nc45)nc23)CC1` [Compound 251, 3-(4-(4-Methylpiperazin-1-yl)-1H-benzo[d]imidazol-2-yl)-5-(pyrimidin-5-yl)-1H-pyrazolo[4,3-b]pyridine] had an EC50 of 2.23 µM.
For the compound `c1cc(-c2ccncc2)c2nc(-c3n[nH]c4ccc(-c5ccncc5)nc34)[nH]c2c1` [Compound 130, 5-(Pyridin-4-yl)-3-(4-(pyridin-4-yl)-1H-benzo[d]imidazol-2-yl)-1H-pyrazolo [4,3-b]pyridine], the concentration giving a half-maximal response (EC50) was > 10 µM and the inhibition at 10 µM was 48.7%.
The matching figures for `Oc1cncc(-c2ccc3[nH]nc(-c4nc5ccccc5[nH]4)c3n2)c1` [Compound 661, 5-(3-(1H-Benzo[d]imidazol-2-yl)-1H-pyrazolo[4,3-b]pyridin-5-yl)pyridin-3-ol]: > 10 µM and 50.9%.
As for `Cc1cn(-c2cccc3[nH]c(-c4n[nH]c5ccc(-c6cncc(N7CC(N)C7)n6)nc45)nc23)cn1` [Compound 622, 1-(6-(3-(4-(4-Methyl-1H-imidazol-1-yl)-1H-benzo[d]imidazol-2-yl)-1H-pyrazolo[4,3-b]pyridin-5-yl)pyrazin-2-yl)azetidin-3-amine], the 50% effective concentration (EC50) was 0.38 µM.
With `COc1cccc(-c2cccc3[nH]c(-c4n[nH]c5ccc(-c6cncc(NC(=O)C7CCCCC7)c6)nc45)nc23)c1` [Compound 1012, N-(5-(3-(4-(3-Methoxyphenyl)-1H-benzo[d]imidazol-2-yl)-1H-pyrazolo[4,3-b]pyridin-5-yl)pyridin-3-yl)cyclohexanecarboxamide], the EC50 was > 10 µM and the inhibition at 10 µM was found to be 33%.
The like results for `Cn1cc(-c2ccc3[nH]nc(-c4nc5c(N6CCCCC6)cccc5[nH]4)c3n2)c(CO)n1` [Compound 1134, (1-Methyl-4-(3-(4-(piperidin-1-yl)-1H-benzo[d]imidazol-2-yl)-1H-pyrazolo [4,3-b]pyridin-5-yl)-1H-pyrazol-3-yl)methanol] were, in that order, > 10 µM and 28.3%.
`COc1cccc(-c2cccc3[nH]c(-c4n[nH]c5ccc(-c6cncc(OC7CCNCC7)c6)nc45)nc23)c1` [Compound 1025, 3-(4-(3-Methoxyphenyl)-1H-benzo[d]imidazol-2-yl)-5-(5-(piperidin-4-yloxy)pyridin-3-yl)-1H-pyrazolo[4,3-b]pyridine] had an EC50 of 4.49 µM.
